A word on the IC50: it is the point on the concentration scale where inhibition reaches its midpoint. A lower IC50 goes with higher potency.

The assay deals with T1, Porcine pancreatic lipase (type II) (Sus scrofa, UniProt P00591).
T1 construct: gene PNLIP; native commercial porcine pancreas preparation (Sigma-Aldrich, type II), no added colipase stated; human 1LPA used only for docking
T1 sequence (P00591 1-450): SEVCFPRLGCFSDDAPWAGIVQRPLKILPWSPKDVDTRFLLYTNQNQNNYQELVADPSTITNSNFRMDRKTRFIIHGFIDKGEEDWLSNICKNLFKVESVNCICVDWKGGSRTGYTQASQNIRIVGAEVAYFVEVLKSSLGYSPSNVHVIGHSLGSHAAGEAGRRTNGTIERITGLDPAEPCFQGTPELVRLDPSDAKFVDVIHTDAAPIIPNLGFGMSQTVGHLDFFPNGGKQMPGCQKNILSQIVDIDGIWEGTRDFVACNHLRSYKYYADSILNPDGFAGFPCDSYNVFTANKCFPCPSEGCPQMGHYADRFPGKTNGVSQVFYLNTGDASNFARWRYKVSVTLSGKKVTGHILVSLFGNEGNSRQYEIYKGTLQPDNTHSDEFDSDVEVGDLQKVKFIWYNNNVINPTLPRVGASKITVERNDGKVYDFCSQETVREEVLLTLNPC
In words: fluorometric lipase assay, 4-methylumbelliferone release. It counts as biochemical. The text has this:
fluorometric lipase assay, 4-methylumbelliferone release on Porcine pancreatic lipase (type II) | IC50 values of neochlorogenic acid, chlorogenic acid, isochlorogenic acid B and isochlorogenic acid A

`O=C(/C=C/c1ccc(O)c(O)c1)O[C@H]1[C@H](O)C[C@](O)(C(=O)O)C[C@H]1OC(=O)/C=C/c1ccc(O)c(O)c1` [P7, isochlorogenic acid B] gave an IC50 of 234 µM.
The figure for `O=C(/C=C/c1ccc(O)c(O)c1)O[C@@H]1C[C@](O)(C(=O)O)C[C@@H](OC(=O)/C=C/c2ccc(O)c(O)c2)[C@H]1O` [P8, isochlorogenic acid A] is 157 µM; for `O=C(/C=C/c1ccc(O)c(O)c1)O[C@@H]1C[C@](O)(C(=O)O)C[C@@H](O)[C@H]1O` [P3, chlorogenic acid] it is 322 µM; for `O=C(/C=C/c1ccc(O)c(O)c1)O[C@@H]1C[C@@](O)(C(=O)O)C[C@@H](O)[C@@H]1O` [P1, neochlorogenic acid] it is 429 µM.

The record behind these values is article PMC8138579, “Screening of Anti-Lipase Components of Artemisia argyi Leaves Based on Spectrum-Effect Relationships and HPLC-MS/MS” (Frontiers in Pharmacology, 2021).
